Laboratory results: US12435051B2, “Dual modulator of mGluR5 and 5-HT2A receptor, and use thereof” (Vivozon Inc., priority 2020, dated 2025)
Like-named read-outs stand apart in the source and are kept apart here.

Tests used:
human 5-HT2AR = molecular target: T1, human 5-HT2AR (Homo sapiens, UniProt P28223); assay: HTRF-based IP1 accumulation assay (5-HT2AR antagonistic effect); assay type: cell-based; settings: HEK293 cells overexpressing human 5-HT2AR; serotonin at EC80
T1 construct: expressed in transfected cells; host or cells: HEK293
T1 sequence (P28223 whole entry): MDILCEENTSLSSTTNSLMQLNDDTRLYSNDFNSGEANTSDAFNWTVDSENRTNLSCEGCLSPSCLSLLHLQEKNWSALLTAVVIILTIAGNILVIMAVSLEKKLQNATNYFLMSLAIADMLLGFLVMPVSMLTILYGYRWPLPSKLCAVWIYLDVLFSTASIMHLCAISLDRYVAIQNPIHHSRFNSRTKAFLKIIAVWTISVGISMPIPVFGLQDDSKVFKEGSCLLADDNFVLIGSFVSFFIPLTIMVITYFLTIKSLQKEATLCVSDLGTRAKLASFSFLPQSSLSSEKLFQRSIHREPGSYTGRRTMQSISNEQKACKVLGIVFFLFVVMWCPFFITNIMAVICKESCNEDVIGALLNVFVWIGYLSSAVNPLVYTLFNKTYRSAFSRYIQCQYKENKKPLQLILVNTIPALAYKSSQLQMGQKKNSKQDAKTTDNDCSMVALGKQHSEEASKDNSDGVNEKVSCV
In short: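 HEK293 cells stably overexpressing human 5-HT2AR were pre-incubated with compound (top 10 μM, serial dilutions, LiCl buffer) 10 min at room temperature, then stimulated with EC80 serotonin 30 min at 37 °C. IP1 accumulation was read by HTRF; IC50s came from activity normalized to serotonin and IP1 controls.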

mGluR5 = molecular target: T2, mGluR5 (Homo sapiens, UniProt P41594); assay: Fluorescence-based Ca2+ mobilization assay; assay type: cell-based; settings: HEK293 cells overexpressing mGluR5; L-glutamate at EC80
T2 construct: expressed in transfected cells; host or cells: HEK293
T2 sequence (P41594 21-1212): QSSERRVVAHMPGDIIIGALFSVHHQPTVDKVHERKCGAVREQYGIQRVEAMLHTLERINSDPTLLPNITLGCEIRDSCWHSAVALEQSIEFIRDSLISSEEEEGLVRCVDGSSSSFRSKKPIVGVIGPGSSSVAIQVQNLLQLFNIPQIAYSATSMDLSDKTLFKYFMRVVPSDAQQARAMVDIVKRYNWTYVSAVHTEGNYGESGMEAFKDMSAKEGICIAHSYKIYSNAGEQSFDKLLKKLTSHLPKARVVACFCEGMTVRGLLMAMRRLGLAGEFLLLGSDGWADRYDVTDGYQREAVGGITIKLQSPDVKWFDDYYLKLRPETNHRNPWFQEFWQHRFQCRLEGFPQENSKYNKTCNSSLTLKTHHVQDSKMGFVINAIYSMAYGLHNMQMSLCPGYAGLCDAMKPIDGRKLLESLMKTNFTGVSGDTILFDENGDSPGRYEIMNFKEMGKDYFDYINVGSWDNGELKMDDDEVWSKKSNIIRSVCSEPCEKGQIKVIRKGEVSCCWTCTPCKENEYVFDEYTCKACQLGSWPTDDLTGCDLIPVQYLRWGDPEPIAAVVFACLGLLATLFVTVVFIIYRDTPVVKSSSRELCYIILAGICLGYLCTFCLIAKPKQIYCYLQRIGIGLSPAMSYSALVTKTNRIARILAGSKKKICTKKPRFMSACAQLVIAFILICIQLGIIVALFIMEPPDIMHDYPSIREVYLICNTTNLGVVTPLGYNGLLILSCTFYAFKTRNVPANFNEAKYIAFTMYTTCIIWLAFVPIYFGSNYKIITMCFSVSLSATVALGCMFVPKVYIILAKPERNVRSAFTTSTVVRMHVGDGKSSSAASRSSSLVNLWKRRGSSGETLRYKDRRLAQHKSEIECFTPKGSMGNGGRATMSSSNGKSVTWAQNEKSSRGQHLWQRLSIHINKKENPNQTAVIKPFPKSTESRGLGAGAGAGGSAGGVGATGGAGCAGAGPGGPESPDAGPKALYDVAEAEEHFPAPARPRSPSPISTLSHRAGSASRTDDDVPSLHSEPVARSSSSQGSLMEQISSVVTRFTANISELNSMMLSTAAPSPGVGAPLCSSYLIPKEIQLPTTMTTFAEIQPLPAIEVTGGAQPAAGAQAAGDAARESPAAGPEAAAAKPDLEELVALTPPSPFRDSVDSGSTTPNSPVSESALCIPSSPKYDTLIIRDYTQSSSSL
In short: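 HEK293 cells stably overexpressing mGluR5, dye-loaded 60 min at 37 °C, then preincubated with compound 30 min at room temperature in the dark. Ca2+ response to L-glutamate at EC80 read on FLIPR for 2 min. Signal normalised to glutamate (100%) and vehicle (0%); IC50 from % inhibition.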

[1] = tested on: physical (tactile) allodynia in spinal nerve ligation model; assay: Analgesic efficacy experiment using animal model (Chung model, spinal nerve ligation); assay type: in vivo, Sprague-Dawley rats; settings: for inhibition in vivo at 50 mg/kg: 50 mpk
Description: The Chung model (spinal nerve ligation model) is a representative animal model to study neuropathic pain and is widely accepted as a gold standard for an animal pain model by global pharmaceutical companies around the world.
In this experiment, male Sprague-Dawley rats (100-120 g) purchased from Koatech (Pyeongtaek-si, Gyeonggi-do) were used. Rats were kept in a room maintained at constant temperature and humidity with a 12 hour light-dark cycle. Rats were allowed to eat and drink freely during the experiment.
For the Chung surgery, rats were anesthetized by isoflurane inhalation and the left lumbar nerves L5 and L6 were tightly tied with a suture thread (6-0 silk thread) at the end of the dorsal ganglion and at a front of an entrance to the sciatic nerve according to the article (Kim and Chung (1992), Pain 50(3):355-63). After suturing the incision, the rats were recovered for 2 weeks in the controlled maintenance room to induce physical allodynia in the left hind paw of the rat. To measure physical (tactile) allodynia, the rats were placed in a cage with a wire mesh on the bottom. Stimuli of increasing intensity (using the von Frey filaments in a range of 0.41 to 15.8 g) were placed on the plantar surface on the side of the nerve injury. The stimulus intensity at which the pain response (abrupt lifting, licking or sucking of the foot) was induced was recorded while applying gradual increment of stimuli. As described in the study of Chaplan et al. (1994) (Chaplan et al. (1994) J. Neurosci. Methods 53(1):55-63), the paw withdrawal threshold (PWT) was determined by increasing or decreasing continuous stimulus intensity, and the result was analyzed by applying Dixon's up-down method. Only rats showing no behavior dysfunction (e.g., feet dragging or dropping) were selected and included in the study, and the PWT of the rats used was 3.16 g or less.
After measuring the degree of basic reaction before drug injection, each compound and solvent were injected by oral administration (12.5-100 mg/kg), and the measurement was repeated at regular time intervals (60 and 120 minutes) after the drug was injected.
The experimenter conducted the PWT measurement in a blind condition not knowing which rat was administered with which drug. The control group was administered with gabapentin (65 mg/kg, intraperitoneal administration), and was randomly mixed during the measurement. Statistical analysis was performed on the measured pain response threshold by calculating the reversal rate (% reversal) from pain in Equation 1 below. […] Pain reversal rate (% reversal)=[(PWT after drug administration)−(PWT before drug administration)]*100/[(15 g, Estimated PWT in normal animals)−(PWT before drug administration)] [Equation 1]
The PWT used in this time is a value obtained by multiplying the gram, the unit of “force” measure, by 10,000, and taking the logarithm, which is a method generally used in academia.
Each experiment consisted of the compound group, the solvent group of the compound and the gabapentin (GBP) group as positive control group. As solvent of the compound, 0.5% HPMC (hydroxypropylmethyl cellulose) was used.

[2] = rat, oral, 1 h, read-out: % reversal (1 h)
[3] = rat, oral, 2 h, read-out: % reversal (2 h)
[4] = rat, oral, 100 mpk, 1 h, read-out: % reversal (1 h)
[5] = rat, oral, 100 mpk, 2 h, read-out: % reversal (2 h)
[6] = Rattus norvegicus, po, 1 h, read-out: % reversal (1 h)
[7] = Rattus norvegicus, po, 2 h, read-out: % reversal (2 h)

| Compound | IC50 (human 5-HT2AR) [nM] | IC50 (mGluR5) [nM] | inhibition in vivo at 50 mg/kg [1, 2] [%] | inhibition in vivo at 50 mg/kg [1, 3] [%] | inhibition in vivo at 100 mg/kg [1, 4] [%] | inhibition in vivo at 100 mg/kg [1, 5] [%] | inhibition in vivo at 100 mg/kg [1, 6] [%] | inhibition in vivo at 100 mg/kg [1, 7] [%] | inhibition in vivo at 25 mg/kg [1, 6] [%] | inhibition in vivo at 25 mg/kg [1, 7] [%] |
| --- | --- | --- | --- | --- | --- | --- | --- | --- | --- | --- |
| O=C(NCC1CCCOC1)c1ccc(C#Cc2ccccc2F)cc1 (stereo not shown) [Example 40, 4-((2-fluorophenyl)ethynyl)-N-((tetrahydro-2H-pyran-3-yl)methyl)benzamide] | 100 to 500 | < 100 | 103 | 111 |  |  |  |  |  |  |
| O=C(NCC1(NC2CC2)CCC1)c1ccc(C#Cc2ccccc2F)cc1 [Example 9, N-((1-(cyclopropylamino)cyclobutyl)methyl)-4-((2-fluorophenyl)ethynyl)benzamide] | < 100 | 100 to 500 |  |  | 64 | 59.6 |  |  |  |  |
| O=C(NCC1CCCC(O)C1)c1ccc(C#Cc2ccccc2F)cc1 (stereo not shown) [Example 64, 4-((2-fluorophenyl)ethynyl)-N-((3-hydroxycyclohexyl)methyl)benzamide] | 500 to 1000 | < 100 | 10.4 | 45.2 |  |  |  |  |  |  |
| O=C(NC[C@H]1CCCO1)c1ccc(C#Cc2ccccc2F)cc1 [Example 45, (R)-4-((2-fluorophenyl)ethynyl)-N-((tetrahydrofuran-2-yl)methyl)benzamide] | 100 to 500 | < 100 | 77.7 | 50.6 |  |  |  |  |  |  |
| O=C(NCC1(NC2CC2)CCCCCC1)c1ccc(C#Cc2ccccn2)cc1 [Example 1, N-((1-(cyclopropylamino)cycloheptyl)methyl)-4-(pyridin-2-ylethynyl)benzamide] | 100 to 500 | 1000 to 2000 |  |  | 60.5 | 85.7 |  |  |  |  |
| O=C(NCC1CCOCC1)c1ccc(C#Cc2ccc(F)cc2F)cc1 [Example 44, 4-((2,4-difluorophenyl)ethynyl)-N-((tetrahydro-2H-pyran-4-yl)methyl)benzamide] | < 100 | 500 to 1000 | 3.45 | 9.13 |  |  |  |  |  |  |
| O=C(NCC1(NC2CC2)CCC1)c1ccc(C#Cc2ccncc2)cc1F [Example 10, N-((1-(cyclopropylamino)cyclobutyl)methyl)-2-fluoro-4-(pyridin-4-ylethynyl)benzamide] | 100 to 500 | 100 to 500 | 44.9 | 36.1 |  |  |  |  |  |  |
| O=C(NCC1CCOC1)c1ccc(C#Cc2ccccc2F)cc1 (stereo not shown) [Example 43, 4-((2-fluorophenyl)ethynyl)-N-((tetrahydrofuran-3-yl)methyl)benzamide] | 100 to 500 | < 100 | 72.9 | 90.8 |  |  |  |  |  |  |
| O=C(NCC1CCC(F)(F)CC1)c1ccc(C#Cc2ccccc2F)cc1 [Example 39, N-((4,4-difluorocyclohexyl)methyl)-4-((2-fluorophenyl)ethynyl)benzamide] | < 100 | < 100 |  |  |  |  | 25.4 | 33.5 |  |  |
| O=C(NC[C@H]1CCCOC1)c1ccc(C#Cc2ccccc2F)cc1 [Example 92, (R)-4-((2-fluorophenyl)ethynyl)-N-((tetrahydro-2H-pyran-3-yl)methyl)benzamide] | 100 to 500 | < 100 |  |  |  |  |  |  | 39.8 | 48.7 |
| CC(NC(=O)c1ccc(C#Cc2ccccc2F)cc1)C1CCOCC1 (stereo not shown) [Example 42, 4-((2-fluorophenyl)ethynyl)-N-(1-(tetrahydro-2H-pyran-4-yl)ethyl)benzamide] | 100 to 500 | < 100 |  |  | 82.9 | 88.1 |  |  |  |  |
| O=C(NC[C@@H]1CCCO1)c1ccc(C#Cc2ccccc2F)cc1 [Example 46, (S)-4-((2-fluorophenyl)ethynyl)-N-((tetrahydrofuran-2-yl)methyl)benzamide] | 100 to 500 | 100 to 500 |  |  | 73 | 99.8 |  |  |  |  |
| O=C(NCC1CCOC1)c1ccc(C#Cc2ccc(F)cc2)cc1 (stereo not shown) [Example 94, 4-((4-fluorophenyl)ethynyl)-N-((tetrahydrofuran-3-yl)methyl)benzamide] | 100 to 500 | 100 to 500 | 74.2 | 97.7 |  |  |  |  |  |  |
